# Test results as given in patent publication US20210063414A1, “METHODS FOR PREVENTING AND/OR TREATING BONE LOSS CONDITIONS BY MODULATING IRISIN” (Dana-Farber Cancer Institute, Inc., priority 2018, published 2021).
# Molecular target: T1, integrin αV/β5 (Homo sapiens, UniProt P06756+P18084)
# T1 construct: expressed in transfected cells; host or cells: HEK293T
# Experiment: FAK phosphorylation in HEK293T cells with forced expression of integrin αV/β5
# Assay type: cell-based
# Description: 100 nM irisin was incubated with 5 nM indicated his-tag integrins followed by immunoprecipitation using Ni-NTA agaroses. Precipitated integrins and co-precipitated irisin were analyzed by immunoblot analysis. […] HEK293T cells were seeded and incubated until 50% cell density. The cells were transfected with 0.1 μg plasmids of indicated integrins. After 48 hours, the cells were incubated with Freestyle293 medium for 3 hours and were treated with indicated concentration of irisin for 5 minutes. Cells were lysed to detect the indicated protein level using immunoblot analysis. […] MLO-Y4 cells were treated as described in FIG. 2D with addition of pretreatment of indicated antagonistic antibodies for 10 minutes. Cells were lysed to detect the indicated protein level using immunoblot analysis. […] MLO-Y4 cells were treated as described in FIG. 1B except with addition of the pretreatment of indicated antagonistic antibodies for 10 minutes. Sclerostin mRNA level was analyzed by qRT-PCR. Cyclophilin was used for house-keeping gene. […] The ribbon diagram is colored by HDX stabilization/destabilization. Percentages of deuterium differences are color-coded according to the smooth color gradient key at the bottom. Crystal structure of irisin dimer is from Protein Data Bank (PDB) (4 lsd) and a homology model of integrin β5 was built based on integrin β3 structure from PDB (4MMX).
# 100 nM irisin was incubated with 5 nM indicated his-tag integrins followed by immunoprecipitation using Ni-NTA agaroses. Precipitated integrins and co-precipitated irisin were analyzed by immunoblot analysis. […] HEK293T cells were seeded and incubated until 50% cell density. The cells were transfected with 0.1 μg plasmids of indicated integrins. After 48 hours, the cells were re-split to indicated dose of vitronectin-coated plates. Cells were incubated with culture medium for 3 hours. Cells were lysed to detect the indicated protein level using immunoblot analysis. FIG. 15C and FIG. 15D show the immunoblot data. Cells were treated and analyzed as FIG. 14B except using plasmids encoding integrin α5/β1 or integrin α11/β1 (FIG. 15C) integrin αV/β1(FIG. 15D).
# MLO-Y4 cells were treated and analyzed as described in FIG. 5A with addition of pretreatment of control RGD peptide, cyclo RGDyK (cRGDyK), or SB273005. […] HEK293 cells were treated and analyzed as described in FIG. 14B except the treatment of different dose of cyclo RGDyK. […] 8 weeks old male mice were treated and analyzed as described in FIG. 5D except the additional group with co-injection of 1 mg/kg SB273005. […]
# Cells were harvested in RIPA buffer containing protease-inhibitor cocktail and phosphataseinhibitor cocktail. […] Protein levels were analyzed via western blot using indicated antibody. […]
# T1 sequence (P06756 31-889 limits assumed): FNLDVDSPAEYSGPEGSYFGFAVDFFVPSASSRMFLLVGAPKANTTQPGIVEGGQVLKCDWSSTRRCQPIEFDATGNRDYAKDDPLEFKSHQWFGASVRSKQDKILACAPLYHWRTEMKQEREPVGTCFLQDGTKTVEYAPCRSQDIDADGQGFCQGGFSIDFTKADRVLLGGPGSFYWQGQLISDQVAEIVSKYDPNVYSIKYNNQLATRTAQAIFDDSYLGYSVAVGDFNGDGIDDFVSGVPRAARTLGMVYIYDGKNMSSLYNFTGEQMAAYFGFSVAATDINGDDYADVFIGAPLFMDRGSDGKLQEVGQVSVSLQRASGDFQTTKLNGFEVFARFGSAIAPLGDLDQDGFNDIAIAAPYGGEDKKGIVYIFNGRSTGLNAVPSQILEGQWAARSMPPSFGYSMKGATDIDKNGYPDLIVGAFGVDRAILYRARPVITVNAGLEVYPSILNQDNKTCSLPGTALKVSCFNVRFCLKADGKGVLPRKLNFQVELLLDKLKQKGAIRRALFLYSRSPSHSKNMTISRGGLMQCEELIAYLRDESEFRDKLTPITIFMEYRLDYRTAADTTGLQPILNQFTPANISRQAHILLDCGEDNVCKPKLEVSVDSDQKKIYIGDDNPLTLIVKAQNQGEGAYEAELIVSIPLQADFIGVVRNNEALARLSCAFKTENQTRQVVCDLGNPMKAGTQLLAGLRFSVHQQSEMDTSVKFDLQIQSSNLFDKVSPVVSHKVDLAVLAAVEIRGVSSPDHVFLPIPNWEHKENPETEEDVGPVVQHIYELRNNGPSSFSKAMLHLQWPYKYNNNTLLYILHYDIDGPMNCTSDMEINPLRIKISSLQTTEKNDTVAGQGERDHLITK
# T1 sequence (P06756 891-1048 partner limits assumed): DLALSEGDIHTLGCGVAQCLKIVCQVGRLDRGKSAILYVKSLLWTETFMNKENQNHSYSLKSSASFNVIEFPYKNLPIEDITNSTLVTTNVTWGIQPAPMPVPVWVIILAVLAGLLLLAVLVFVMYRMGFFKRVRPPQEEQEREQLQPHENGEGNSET
# T1 sequence (P18084 24-799): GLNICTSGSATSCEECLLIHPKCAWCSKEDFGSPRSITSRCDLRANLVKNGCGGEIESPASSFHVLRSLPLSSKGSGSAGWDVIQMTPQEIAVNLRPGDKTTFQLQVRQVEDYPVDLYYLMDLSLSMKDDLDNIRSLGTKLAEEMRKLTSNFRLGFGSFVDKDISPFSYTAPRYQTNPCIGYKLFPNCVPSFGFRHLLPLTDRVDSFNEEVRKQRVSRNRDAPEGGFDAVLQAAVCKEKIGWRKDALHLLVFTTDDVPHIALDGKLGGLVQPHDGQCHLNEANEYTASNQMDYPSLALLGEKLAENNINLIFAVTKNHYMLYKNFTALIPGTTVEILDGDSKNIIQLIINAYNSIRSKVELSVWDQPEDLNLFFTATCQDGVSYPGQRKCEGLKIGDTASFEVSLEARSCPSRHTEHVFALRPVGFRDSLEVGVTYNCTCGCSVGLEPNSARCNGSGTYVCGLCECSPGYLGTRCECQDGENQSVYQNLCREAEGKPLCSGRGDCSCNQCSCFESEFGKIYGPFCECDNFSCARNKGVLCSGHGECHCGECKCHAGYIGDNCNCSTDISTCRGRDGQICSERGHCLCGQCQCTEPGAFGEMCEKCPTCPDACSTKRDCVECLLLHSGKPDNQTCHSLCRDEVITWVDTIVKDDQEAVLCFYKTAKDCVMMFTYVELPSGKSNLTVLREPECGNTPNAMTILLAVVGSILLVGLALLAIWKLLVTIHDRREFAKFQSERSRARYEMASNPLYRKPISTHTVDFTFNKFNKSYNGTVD
smiles,measurement,setting,value
N=C(N)NCCC[C@@H]1NC(=O)[C@H](CCCCN)NC(=O)[C@@H](Cc2ccc(O)cc2)NC(=O)[C@H](CC(=O)O)NC(=O)CNC1=O [cyclo RGDyK],effect on irisin-induced phosphorylation of FAK,"HEK293T integrin αV/β5, 10 nM cyclo RGDyK",prevented phosphorylation of FAK significantly
same,effect on irisin-induced phosphorylation of FAK,"HEK293T integrin αV/β5, 100 nM cyclo RGDyK",blocked the phosphorylation completely
same,IC50,"HEK293T with forced expression of integrin αV/β5, in the presence of irisin, from immunoblot, read-out: IC50 for blocking irisin-integrin αV/β5 signaling (phosphorylation of FAK)",10 to 50 nM
